Values of other authors as cited in publication PMC4484741 (Nuclear medicine and biology, 2011).
Read-outs that look alike come from different tables or passages of the source. One block for each molecule: values may come before it.

Key:
GLP-1 receptor = conditions: read-out: Kd, affinity to GLP-1 receptor
pancreatic BCM = conditions: rats, PET

Molecule: Exendin-4: 39-amino acid peptide hormone from Gila monster saliva, agonist of GLP-1 receptor
half-life in vivo: about 2.4 h

Molecule: Exendin (9-39): truncated version of exendin-4, antagonist of GLP-1 receptor
Kd (GLP-1 receptor): ~3 nM

Molecule: GLP-1: endogenous ligand of the GLP-1 receptor
half-life in vivo (fast degradation by dipeptidyl peptidase-4): 1 to 2 min

Time within which liver and pancreas uptake rose to a plateau (pancreatic BCM): ≤ 15 min
Molecule: COc1cc2c(cc1O[11CH3])CCN1CC(CC(C)C)C(O)CC21 (centres unmarked) [[^11C]DTBZ]

Time within which liver and pancreas uptake rose to a plateau (pancreatic BCM): ≤ 15 min
Molecule: COc1cc2c(cc1OCCC[18F])CCN1C[C@@H](CC(C)C)[C@H](O)C[C@H]21 [[^18F]FP-DTBZ]
